Measured values reported in ChEMBL document CHEMBL3853301, “The therapeutic voyage of pyrazole and its analogs: A review” (Eur J Med Chem, 2016).
≈ marks a conversion by molar mass, not a printed value.

What was measured:
[1] = test system: Bovine viral diarrhea virus 1; assay: Antiviral activity against Bovine viral diarrhea virus 1 infected in MDBK cells; assay type: functional, cell-based; settings: Bovine viral diarrhea virus isolates and strains
[2] = test system: Bovine viral diarrhea virus 1; assay: Potency index, ratio of ribavirin EC50 to compound EC50 for Bovine viral diarrhea virus 1 infected in MDBK cells; assay type: functional
[3] = Antiproliferative activity against human NCI-H226 cells after 72 hrs by MTT assay; assay type: functional; settings: NCI-H226, 72 h
[4] = Antiproliferative activity against human NPC-TW01 cells after 72 hrs by MTT assay; assay type: functional; settings: NPC-TW01, 72 h
[5] = test system: Mycobacterium tuberculosis; assay: Antimycobacterial activity against Mycobacterium tuberculosis H37Rv; assay type: functional
[6] = Antidiabetic activity in albino mouse assessed as reduction in alloxan-induced plasma glucose level at 0.2 mmol/kg, po administered 3 days post alloxan challenge measured 1 to 3 hrs post dose by copper reduction based colorimetric assay relative to control; assay type: functional, organism-based
[7] = Antifungal activity against Penicillium notatum NCIM 745 by broth microdilution method; assay type: functional; settings: Penicillium chrysogenum
Bacillus subtilis [8] = assay: Antibacterial activity against Bacillus subtilis NCIM 2711 by broth microdilution method; assay type: functional
Escherichia coli [9] = assay: Antibacterial activity against Escherichia coli NCIM 2685 by broth microdilution method; assay type: functional
Rattus norvegicus = assay: Antihyperglycemic activity in STZ/nicotinamide-induced type2 diabetic Wistar rat model assessed as blood glucose level at 100 mg/kg, po measured for 14 days post dose; assay type: functional
Aspergillus fumigatus = assay: Antifungal activity against Aspergillus fumigatus NCIM 535 by broth microdilution method; assay type: functional
Staphylococcus aureus [10] = assay: Antibacterial activity against Staphylococcus aureus NCTC 7447 by serial dilution method; assay type: functional
Staphylococcus aureus [11] = assay: Antibacterial activity against Staphylococcus aureus NCTC 7447 by agar diffusion method; assay type: functional
[12] = molecular target: T1, Prostaglandin G/H synthase 1 (Ovis aries, UniProt P05979); assay: Inhibition of recombinant ovine COX1 assessed as reduction in PGF2alpha production from PGH2 by enzyme immunoassay
T1 sequence (P05979 whole entry): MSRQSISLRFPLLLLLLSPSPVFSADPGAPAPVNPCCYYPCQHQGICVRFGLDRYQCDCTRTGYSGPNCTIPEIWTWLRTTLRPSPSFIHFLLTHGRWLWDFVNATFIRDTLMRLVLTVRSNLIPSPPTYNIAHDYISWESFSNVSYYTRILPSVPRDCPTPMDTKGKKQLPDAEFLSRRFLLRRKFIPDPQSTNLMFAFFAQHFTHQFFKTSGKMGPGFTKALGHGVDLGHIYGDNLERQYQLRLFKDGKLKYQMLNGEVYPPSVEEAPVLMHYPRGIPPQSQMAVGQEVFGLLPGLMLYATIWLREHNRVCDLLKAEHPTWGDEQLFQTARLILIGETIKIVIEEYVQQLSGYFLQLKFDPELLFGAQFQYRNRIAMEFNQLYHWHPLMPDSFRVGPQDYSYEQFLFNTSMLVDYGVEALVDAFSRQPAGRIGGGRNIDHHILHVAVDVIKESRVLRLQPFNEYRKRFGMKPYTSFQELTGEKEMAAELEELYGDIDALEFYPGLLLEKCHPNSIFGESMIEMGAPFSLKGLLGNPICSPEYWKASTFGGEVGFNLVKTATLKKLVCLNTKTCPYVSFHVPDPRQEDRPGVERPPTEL

[13] = molecular target: T2, Prostaglandin G/H synthase 2 (Homo sapiens, UniProt P35354); assay: Inhibition of recombinant human COX2 assessed as reduction in PGF2alpha production from PGH2 by enzyme immunoassay
T2 sequence (P35354 whole entry): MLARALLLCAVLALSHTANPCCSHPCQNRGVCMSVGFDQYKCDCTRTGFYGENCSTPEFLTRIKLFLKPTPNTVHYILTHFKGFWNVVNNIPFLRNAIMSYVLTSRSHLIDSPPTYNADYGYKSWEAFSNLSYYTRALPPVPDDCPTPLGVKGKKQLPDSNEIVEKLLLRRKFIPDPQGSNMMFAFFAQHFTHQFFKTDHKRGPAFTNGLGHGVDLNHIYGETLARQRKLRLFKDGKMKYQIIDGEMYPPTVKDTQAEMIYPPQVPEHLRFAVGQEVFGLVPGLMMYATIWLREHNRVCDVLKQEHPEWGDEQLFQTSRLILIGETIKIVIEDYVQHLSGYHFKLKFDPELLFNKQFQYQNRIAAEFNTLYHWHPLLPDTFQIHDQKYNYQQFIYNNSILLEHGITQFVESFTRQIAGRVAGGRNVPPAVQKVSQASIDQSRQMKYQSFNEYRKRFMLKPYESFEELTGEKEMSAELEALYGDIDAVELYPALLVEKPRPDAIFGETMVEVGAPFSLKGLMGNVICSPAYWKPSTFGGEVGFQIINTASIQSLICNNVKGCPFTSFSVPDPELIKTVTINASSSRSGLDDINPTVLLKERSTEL

[14] = Selectivity index, ratio of IC50 for recombinant ovine COX1 to IC50 for recombinant human COX2
Bacillus subtilis [15] = assay: Antibacterial activity against Bacillus subtilis by broth dilution method; assay type: functional
Staphylococcus aureus [16] = assay: Antibacterial activity against Staphylococcus aureus; assay type: functional
Bacillus cereus = assay: Antibacterial activity against Bacillus cereus; assay type: functional
Staphylococcus aureus [17] = assay: Antibacterial activity against Staphylococcus aureus after 16 hrs by serial dilution method; assay type: functional
Bacillus subtilis [18] = assay: Antibacterial activity against Bacillus subtilis after 16 hrs by serial dilution method; assay type: functional
Escherichia coli [19] = assay: Antibacterial activity against Escherichia coli after 16 hrs by serial dilution method; assay type: functional
Pseudomonas aeruginosa = assay: Antibacterial activity against Pseudomonas aeruginosa after 16 hrs by serial dilution method; assay type: functional
Escherichia coli [20] = assay: Antibacterial activity against Escherichia coli MTCC 443 after 24 hrs by broth dilution method; assay type: functional; settings: MTCC 443, 24 h

For Cc1ccc(-n2nc(C)c3c2CN(c2ccccc2)C3=O)cc1, the EC50 [1] was 0.12 µM and the “Ratio EC50” value [2] was 10.

Cc1ccc(-c2cc(C(=O)Nc3ccc(N)cc3)n(-c3ccc4ccccc4n3)n2)cc1 showed a GI50 [3] of 18 µM and a GI50 [4] of 30 µM.

Work on O=C1c2ccccc2NC(c2cn(-c3ccccc3)nc2-c2ccccc2)N1c1ccc(Cl)cc1 (centres undefined) yielded an MIC [5] of 12.5 µg/mL (≈ 26.2 µM).

Cc1c(Br)c(C(F)(F)F)nn1-c1ccc(S(=O)(=O)NC(=O)Nc2ccccc2)cc1 showed an inhibition [6] of 20%.

O=C(O)n1nc(-c2ccccc2)cc1-c1cc2ccccc2nc1Cl gave an MIC [7] of 57 µg/mL (≈ 163 µM), an MIC (Bacillus subtilis [8]) of 54 µg/mL (≈ 154 µM) and an MIC (Escherichia coli [9]) of 43 µg/mL (≈ 123 µM).

With COc1ccc(-n2cc(CC3Cc4cc(OC)c(OC)cc4C3=O)c(-c3cc4ccccc4oc3=O)n2)cc1 (centres undefined) the Activity (Rattus norvegicus) was 138 mg/dL.

For Nc1ccc2nc(Cl)c(-c3cc(-c4ccccc4)nn3C(=O)O)cc2c1, the MIC (Aspergillus fumigatus) was 48 µg/mL (≈ 132 µM), the MIC [7] was 46 µg/mL (≈ 126 µM) and the MIC (Bacillus subtilis [8]) was 44 µg/mL (≈ 121 µM).

In the case of Nc1ccc(NC(=O)c2cc(-c3ccc(Cl)cc3)nn2-c2ccccc2)cc1, the GI50 [3] is reported as 18 µM and the GI50 [4] is reported as 30 µM.

With CC(=O)Nc1ccc(/N=N/c2c(N)nn3c(-c4ccccc4Cl)c(C#N)c(=O)[nH]c23)cc1 the MIC (Staphylococcus aureus [10]) was 110 µg/mL (≈ 246 µM) and the “inhibition zone (IZ)” value (Staphylococcus aureus [11]) was 2.5 cm.

With CC(=O)NC1=NN(C(C)=O)C(c2cn(-c3ccccc3)nc2-c2ccc([N+](=O)[O-])cc2)S1 (centres undefined) the IC50 [12] was 70 µM, the IC50 [13] was 20 µM and the Ratio IC50 [14] was 3.5.

Work on COc1ccc(-n2c(-c3cn(-c4ccccc4)nc3-c3ccccc3)nc3ccccc3c2=O)cc1 yielded an MIC (Bacillus subtilis [15]) of 62.5 µg/mL (≈ 133 µM).

In the case of O=C1C(c2cc(-c3ccc(Br)cc3)nn2-c2ccccc2)C(O)N(c2ccccc2)C(=S)N1c1ccccc1 (centres undefined), the MIC (Staphylococcus aureus [16]) is reported as 31.2 µg/mL (≈ 52.5 µM) and the MIC (Bacillus cereus) is reported as 31.2 µg/mL (≈ 52.5 µM).

COc1cc2c(cc1OC)C(=O)C(Cc1cn(-c3ccc(C)cc3)nc1-c1cc3ccccc3oc1=O)C2 (centres undefined) gave an Activity (Rattus norvegicus) of 115 mg/dL.

Work on NC(=O)c1ncn([C@@H]2O[C@H](CO)[C@@H](O)[C@H]2O)n1 [RIBAVIRIN] yielded an EC50 [1] of 1.3 µM.

For O=C1/C(=C\c2cn(-c3ccccc3)nc2-c2ccc(O)cc2)SC(=S)N1c1ccc(Cl)cc1, the IC50 (Escherichia coli [9]) was 62.5 µg/mL (≈ 128 µM).

Sc1nncn1/N=C/c1cn[nH]c1-c1ccccc1 showed an MIC (Staphylococcus aureus [17]) of 1.61 µg/mL (≈ 5.96 µM), an MIC (Bacillus subtilis [18]) of 1.61 µg/mL (≈ 5.96 µM) and an MIC (Escherichia coli [19]) of 1.61 µg/mL (≈ 5.96 µM). It also gave an MIC (Pseudomonas aeruginosa) of 1.61 µg/mL (≈ 5.96 µM).

For O=C1CSC(N2N=C(c3ccccc3[N+](=O)[O-])CC2c2cn(-c3ccccc3)nc2-c2ccc(F)cc2)=N1 (centres undefined), the MIC (Escherichia coli [20]) was 12.5 µg/mL (≈ 23.7 µM).

With CC(=O)NC1=NN(C(C)=O)C(c2cn(-c3ccccc3)nc2-c2ccc(O)cc2)S1 (centres undefined) the IC50 [12] was 73 µM, the IC50 [13] was 14 µM and the Ratio IC50 [14] was 5.21.
